From patent US7977345B2, “c-MET modulators and method of use” (Exelixis, Inc., priority 2004, dated 2011)

Tests used:
Assay type in all cases: biochemical
[1] = target: T1, human Flt-3 kinase domain R571-S993 (Homo sapiens, UniProt P36888); test: flt-3 Luciferase-Coupled Chemiluminescent Kinase assay (LCCA); conditions: 5 μM ATP, 3 μM poly-EY, 5 nM Flt-3; read-out: flt-3 inhibition IC50
T1 construct: baculovirus expressed human Flt-3 kinase domain R571-S993; made in house
T1 sequence (P36888 571-993): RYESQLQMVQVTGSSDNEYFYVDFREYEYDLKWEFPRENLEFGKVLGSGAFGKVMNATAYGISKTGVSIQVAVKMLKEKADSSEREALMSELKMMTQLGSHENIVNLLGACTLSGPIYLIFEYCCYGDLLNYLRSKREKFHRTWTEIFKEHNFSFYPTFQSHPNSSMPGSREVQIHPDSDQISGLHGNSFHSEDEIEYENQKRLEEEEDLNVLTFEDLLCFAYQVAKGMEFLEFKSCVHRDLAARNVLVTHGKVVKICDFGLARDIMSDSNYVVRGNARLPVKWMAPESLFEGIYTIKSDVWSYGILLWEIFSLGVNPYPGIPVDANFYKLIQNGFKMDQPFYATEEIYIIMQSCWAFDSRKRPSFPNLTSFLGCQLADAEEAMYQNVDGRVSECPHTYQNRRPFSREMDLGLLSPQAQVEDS
Description: (§1) Kinase activity and compound inhibition are investigated using one or more of the three assay formats described below. The ATP concentrations for each assay are selected to be close to the Michaelis-Menten constant (KM) for each individual kinase. Dose-response experiments are performed at 10 different inhibitor concentrations in a 384-well plate format. The data are fitted to the following four-parameter equation: Y=Min+(Max−Min)/(1+(X/IC50)^H) where Y is the observed signal, X is the inhibitor concentration, Min is the background signal in the absence of enzyme (0% enzyme activity), Max is the signal in the absence of inhibitor (100% enzyme activity), IC50 is the inhibitor concentration at 50% enzyme inhibition and H represents the empirical Hill's slope to measure the cooperativity. Typically H is close to unity. c-Met Assay
Biochemical activity for flt-3 was assessed using a Luciferase-Coupled Chemiluminescent Kinase assay (LCCA) format. Kinase activity was measured as the percent ATP remaining following the kinase reaction. Remaining ATP was detected by luciferase-luciferin-coupled chemiluminescence. Specifically, the reaction was initiated by mixing test compounds, 5 μM ATP, 3 μM poly-EY and 5 nM Flt-3 (baculovirus expressed human Flt-3 kinase domain R571-S993) in a 20 uL assay buffer (20 mM Tris-HCL pH7.5, 10 mM MgCl2, 0.01% Triton X-100, 1 mM DTT, 2 mM MnCl2). The mixture is incubated at ambient temperature for 3 hours after which 20 uL luciferase-luciferin mix is added and the chemiluminescent signal read using a Wallac Victor^2 reader. The luciferase-luciferin mix consists of 50 mM HEPES, pH 7.8, 8.5 ug/mL oxalic acid (pH 7.8), 5 (or 50) mM DTT, 0.4% Triton X-100, 0.25 mg/mL coenzyme A, 63 uM AMP, 28 ug/mL luciferin and 40,000 units of light/mL luciferase.

[2] = target: human c-Met kinase domain P948-S1343 (Homo sapiens, UniProt P08581); test: c-Met Luciferase-Coupled Chemiluminescent Kinase assay (LCCA); conditions: 1 μM ATP, 1 μM poly-EY, 10 nM c-Met; read-out: c-Met inhibition IC50
human c-Met kinase domain P948-S1343, sequence (P08581 1011-1367 limits assumed): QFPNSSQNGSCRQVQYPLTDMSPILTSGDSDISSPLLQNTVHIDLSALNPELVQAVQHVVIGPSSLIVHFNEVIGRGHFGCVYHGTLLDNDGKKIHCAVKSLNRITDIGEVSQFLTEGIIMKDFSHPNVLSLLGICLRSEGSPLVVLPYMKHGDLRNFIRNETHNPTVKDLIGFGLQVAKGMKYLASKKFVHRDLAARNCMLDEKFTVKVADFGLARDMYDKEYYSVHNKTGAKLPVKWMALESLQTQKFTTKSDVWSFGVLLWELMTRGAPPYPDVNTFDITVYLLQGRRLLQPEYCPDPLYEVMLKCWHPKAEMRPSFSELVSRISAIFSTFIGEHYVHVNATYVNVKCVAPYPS
Description: as §1
c-Met biochemical activity was assessed using a Luciferase-Coupled Chemiluminescent Kinase assay (LCCA) format as described above. Again, kinase activity was measured as the percent ATP remaining following the kinase reaction. Remaining ATP was detected by luciferase-luciferin-coupled chemiluminescence. Specifically, the reaction was initiated by mixing test compounds, 1 μM ATP, 1 μM poly-EY and 10 nM c-Met (baculovirus expressed human c-Met kinase domain P948-S1343) in a 20 uL assay buffer (20 mM Tris-HCL pH7.5, 10 mM MgCl2, 0.02% Triton X-100, 100 mM DTT, 2 mM MnCl2). The mixture is incubated at ambient temperature for 2 hours after which 20 uL luciferase-luciferin mix is added and the chemiluminescent signal read using a Wallac Victor^2 reader. The luciferase-luciferin mix consists of 50 mM HEPES, pH 7.8, 8.5 ug/mL oxalic acid (pH 7.8), 5 (or 50) mM DTT, 0.4% Triton X-100, 0.25 mg/mL coenzyme A, 63 uM AMP, 28 ug/mL luciferin and 40,000 units of light/mL luciferase.

[3] = target: T2, human KDR kinase domain D807-V1356 (Homo sapiens, UniProt P35968); test: KDR Luciferase-Coupled Chemiluminescent Kinase assay (LCCA); conditions: 3 μM ATP, 1.6 μM poly-EY, 5 nM KDR; read-out: KDR inhibition IC50
T2 construct: baculovirus expressed human KDR kinase domain D807-V1356; made in house
T2 sequence (P35968 807-1356): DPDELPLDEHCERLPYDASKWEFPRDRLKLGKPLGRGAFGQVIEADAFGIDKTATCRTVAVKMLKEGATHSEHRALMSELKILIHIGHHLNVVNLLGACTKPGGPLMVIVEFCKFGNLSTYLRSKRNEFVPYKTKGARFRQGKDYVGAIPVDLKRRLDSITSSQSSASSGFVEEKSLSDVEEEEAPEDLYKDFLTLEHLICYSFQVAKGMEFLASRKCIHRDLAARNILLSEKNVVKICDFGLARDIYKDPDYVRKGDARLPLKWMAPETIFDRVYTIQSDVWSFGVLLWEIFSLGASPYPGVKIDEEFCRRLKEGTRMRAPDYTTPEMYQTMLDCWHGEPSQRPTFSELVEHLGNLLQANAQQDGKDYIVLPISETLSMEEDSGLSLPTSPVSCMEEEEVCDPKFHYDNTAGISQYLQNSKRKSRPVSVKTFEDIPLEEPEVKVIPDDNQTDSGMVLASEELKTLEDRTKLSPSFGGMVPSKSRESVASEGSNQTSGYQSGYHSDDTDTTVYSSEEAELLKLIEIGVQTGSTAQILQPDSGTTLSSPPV
Description: as §1
KDR biochemical activity was assessed using a Luciferase-Coupled Chemiluminescent Kinase assay (LCCA) format. Kinase activity was measured as the percent ATP remaining following the kinase reaction. Remaining ATP was detected by luciferase-luciferin-coupled chemiluminescence. Specifically, the reaction was initiated by mixing test compounds, 3 μM ATP, 1.6 μM poly-EY and 5 nM KDR (baculovirus expressed human KDR kinase domain D807-V1356) in a 20 uL assay buffer (20 mM Tris-HCL pH7.5, 10 mM MgCl2, 0.01% Triton X-100, 1 mM DTT, 3 mM MnCl2). The mixture is incubated at ambient temperature for 4 hours after which 20 uL luciferase-luciferin mix is added and the chemiluminescent signal read using a Wallac Victor^2 reader. The luciferase-luciferin mix consists of 50 mM HEPES, pH 7.8, 8.5 ug/mL oxalic acid (pH 7.8), 5 (or 50) mM DTT, 0.4% Triton X-100, 0.25 mg/mL coenzyme A, 63 uM AMP, 28 ug/mL luciferin and 40,000 units of light/mL luciferase.

| IC50 [1] [nM] | IC50 [2] [nM] | IC50 [3] [nM] | SMILES |
| --- | --- | --- | --- |
| – | > 500 | > 500 | O=C(Nc1ccc(F)cc1)C1(C(=O)Nc2ccc(Oc3ncnc4c3ncn4C3CCCCO3)cc2)CC1 (stereo not shown) [Entry 8, N-(4-fluorophenyl)-N′-(4-{[9-(tetrahydro-2H-pyran-2-yl)-9H-purin-6-yl]oxy}phenyl)cyclopropane-1,1-dicarboxamide] |
| – | > 500 | > 500 | O=C(Cc1ccccc1)NC(=S)Nc1ccc(Oc2ncnc3c2ncn3C2CCCCO2)cc1 (stereo not shown) [Entry 9, 2-phenyl-N-{[(4-{[9-(tetrahydro-2H-pyran-2-yl)-9H-purin-6-yl]oxy}phenyl)amino]carbonothioyl}acetamide] |
| – | > 500 | > 500 | O=C(Nc1ccc(F)cc1)C1(C(=O)Nc2ccc(Oc3ncnc4[nH]cnc34)cc2)CC1 [Entry 10, N-(4-fluorophenyl)-N′-[4-(9H-purin-6-yloxy)phenyl]cyclopropane-1,1-dicarboxamide] |
| – | > 500 | > 500 | O=C(Cc1ccccc1)NC(=S)Nc1ccc(Oc2ncnc3[nH]cnc23)cc1 [Entry 11, 2-phenyl-N-({[4-(9H-purin-6-yloxy)phenyl]amino}carbonothioyl)acetamide] |
| < 50 | < 50 | < 50 | O=C(NCCN1CCOCC1)c1cc2c(Oc3ccc(NC(=O)C4(C(=O)Nc5ccc(F)cc5)CC4)cc3F)ncnc2[nH]1 [Entry 12, N-{3-fluoro-4-[(6-{[(2-morpholin-4-ylethyl)amino]carbonyl}-7H-pyrrolo[2,3-d]pyrimidin-4-yl)oxy]phenyl}-N′-(4-fluorophenyl)cyclopropane-1,1-dicarboxamide] |

The next lines start with the compound.

| SMILES | IC50 [1] [nM] | IC50 [2] [nM] | IC50 [3] [nM] |
| --- | --- | --- | --- |
| O=C(CC(=O)Nc1ccc(Oc2ncnc3[nH]ccc23)c(F)c1)Nc1ccc(F)cc1 [Entry 1, N-(4-fluorophenyl)-N′-[3-fluoro-4-(7H-pyrrolo[2,3-d]pyrimidin-4-yloxy)phenyl]propanediamide] | < 50 | 50 to 500 | 50 to 500 |
| O=C(Nc1ccc(F)cc1)C1(C(=O)Nc2ccc(Oc3ncnc4[nH]ccc34)c(F)c2)CC1 [Entry 2, N-(4-fluorophenyl)-N′-[3-fluoro-4-(7H-pyrrolo[2,3-d]pyrimidin-4-yloxy)phenyl]cyclopropane-1,1-dicarboxamide] | 50 to 500 | < 50 | < 50 |
| O=C(Cc1ccccc1)NC(=S)Nc1ccc(Oc2ncnc3[nH]ccc23)c(F)c1 [Entry 3, N-({[3-fluoro-4-(7H-pyrrolo[2,3-d]pyrimidin-4-yloxy)phenyl]amino}carbonothioyl)-2-phenylacetamide] | > 500 | < 50 | 50 to 500 |
| O=C(Nc1ccc(F)cc1)C1(C(=O)Nc2ccc(Oc3ncnc4c3cnn4C3CCCCO3)cc2)CC1 (stereo not shown) [Entry 4, N-(4-fluorophenyl)-N′-(4-{[1-(tetrahydro-2H-pyran-2-yl)-1H-pyrazolo[3,4-d]pyrimidin-4-yl]oxy}phenyl)cyclopropane-1,1-dicarboxamide] | – | > 500 | > 500 |
| O=C(Cc1ccccc1)NC(=S)Nc1ccc(Oc2ncnc3c2cnn3C2CCCCO2)cc1 (stereo not shown) [Entry 5, 2-phenyl-N-{[(4-{[1-(tetrahydro-2H-pyran-2-yl)-1H-pyrazolo[3,4-d]pyrimidin-4-yl]oxy}phenyl)amino]carbonothioyl}acetamide] | – | > 500 | > 500 |
| O=C(Nc1ccc(F)cc1)C1(C(=O)Nc2ccc(Oc3ncnc4[nH]ncc34)cc2)CC1 [Entry 6, N-(4-fluorophenyl)-N′-[4-(1H-pyrazolo[3,4-d]pyrimidin-4-yloxy)phenyl]cyclopropane-1,1-dicarboxamide] | – | > 500 | 50 to 500 |
| O=C(Cc1ccccc1)NC(=S)Nc1ccc(Oc2ncnc3[nH]ncc23)cc1 [Entry 7, 2-phenyl-N-({[4-(1H-pyrazolo[3,4-d]pyrimidin-4-yloxy)phenyl]amino}carbonothioyl)acetamide] | – | > 500 | > 500 |
